US10975068B2, “6-aminopyridin-3-yl thiazoles as modulators of RORγT” (Janssen Pharmaceutica NV, priority 2016, dated 2021)
Where two headings read alike, the source gives them in different places.

How the values were obtained:
[1] = target: full-length human RORγt (Homo sapiens (Human), UniProt P51449); experiment: RORγt (full-length human) reporter assay, Conditions B or C; type: cell-based; settings: for IC50: read-out: RORγt (FL) Reporter Assay B or C, IC50; for inhibition at 3 µM: at 3 μM compound concentration; for inhibition at 3 µM / inhibition at 1 µM: read-out: RORγt (FL) Reporter Assay B or C, % inhibition; for inhibition at 1 µM: at 1 μM compound concentration; for RORγt (FL) Reporter Assay B or C, % inhibition (value marked *): marked *: footnote not given
In short: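 HEK293T cells transiently co-transfected with GAL4-DBD–full-length human RORγt (nt 142-1635, NM_001001523.1) plus GAL4-firefly and CMV-Renilla luciferase reporters; compounds added 4-6 h post-transfection for 16-20 h in 1.3% FBS, 0.1% DMSO. Firefly signal normalized to DMSO and saturating reference compound, then to Renilla; IC50 from concentration plots.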

[2] = target: human RORγt ligand binding domain (RORγt LBD) (Homo sapiens (Human), UniProt P51449); experiment: RORγt ThermoFluor® assay (thermal shift binding); settings: read-out: ThermoFluor® Assay, Kd
In short: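 His-tagged human RORγt LBD (0.065 mg/mL) with 60 μM 1,8-ANS in 100 mM Hepes pH 7.0, 10 mM NaCl, 2.5 mM GSH, 0.002% Tween-20 was heated at 1 °C/min.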

Sequence of full-length human RORγt (P51449 other isoform, or with tags, fused parts or gaps): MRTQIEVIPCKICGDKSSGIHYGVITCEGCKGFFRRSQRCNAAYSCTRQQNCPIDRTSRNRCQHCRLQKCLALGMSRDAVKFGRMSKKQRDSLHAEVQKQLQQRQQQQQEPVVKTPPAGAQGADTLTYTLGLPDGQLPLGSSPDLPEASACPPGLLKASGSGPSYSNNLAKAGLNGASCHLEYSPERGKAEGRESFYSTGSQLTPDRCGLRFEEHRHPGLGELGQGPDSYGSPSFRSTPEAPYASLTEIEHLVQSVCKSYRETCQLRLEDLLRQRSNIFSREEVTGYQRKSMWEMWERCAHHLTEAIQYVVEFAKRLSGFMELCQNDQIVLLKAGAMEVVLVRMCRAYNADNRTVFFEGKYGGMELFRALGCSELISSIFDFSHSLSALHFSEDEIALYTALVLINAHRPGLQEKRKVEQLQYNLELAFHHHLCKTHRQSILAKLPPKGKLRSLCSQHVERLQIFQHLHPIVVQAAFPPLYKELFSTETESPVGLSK
Sequence of human RORγt ligand binding domain (RORγt LBD) (P51449 other isoform, or with tags, fused parts or gaps): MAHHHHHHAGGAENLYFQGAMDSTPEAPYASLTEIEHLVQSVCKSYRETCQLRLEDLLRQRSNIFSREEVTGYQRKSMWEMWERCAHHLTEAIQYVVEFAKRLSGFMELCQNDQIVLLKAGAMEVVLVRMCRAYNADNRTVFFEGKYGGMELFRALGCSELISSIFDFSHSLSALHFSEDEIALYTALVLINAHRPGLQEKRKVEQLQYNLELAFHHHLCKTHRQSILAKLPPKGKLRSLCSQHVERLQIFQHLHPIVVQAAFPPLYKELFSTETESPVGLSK

SMILES | RORγt (FL) Reporter Assay B or C, % inhibition (value marked ***) ([1]; Conditions B or C, marked ***: footnote not given) | IC50 ([1]; Conditions B or C) | Kd [2] | inhibition at 3 µM [1] | IC50 [1] | inhibition at 1 µM [1] | RORγt (FL) Reporter Assay B or C, % inhibition (value marked *) ([1]; Conditions B or C)
C[C@H]1CC(F)(F)CN1C(=O)c1nc(C(=O)NCC(C)(C)O)sc1-c1cnc(NC(C)(C)C)cc1C(F)(F)F [Example 83, (S)-5-(6-(tert-Butylamino)-4-(trifluoromethyl)pyridin-3-yl)-4-(4,4-difluoro-2-methylpyrrolidine-1-carbonyl)-N-(2-hydroxy-2-methylpropyl)thiazole-2-carboxamide] | 110*** % | 6.9 nM | 0.55 nM |  |  |  | 
C[C@H]1CCCN1C(=O)c1nc(C(=O)N[C@H]2C[C@H](O)C2)sc1-c1cnc(NC(C)(C)C)cc1C(F)(F)F [Example 258, 5-[6-(tert-Butylamino)-4-(trifluoromethyl)-3-pyridyl]-N-((1r,3S)-3-hydroxycyclobutyl)-4-[(2S)-2-methylpyrrolidine-1-carbonyl]thiazole-2-carboxamide] |  |  | 3.5 nM | 110% | 65 nM |  | 
CC[C@H](Nc1cc(C(F)F)c(-c2sc(C(=O)N[C@@H]3CC[C@@H]3O)nc2C(=O)N2CCC[C@@H]2C)cn1)C(F)(F)F (relative stereo) [Example 381, 5-(4-(Difluoromethyl)-6-(((S)-1,1,1-trifluorobutan-2-yl)amino)pyridin-3-yl)-N-((1R*,2S*)-2-hydroxycyclobutyl)-4-((S)-2-methylpyrrolidine-1-carbonyl)thiazole-2-carboxamide] |  |  | 6.7 nM | 107% | 12 nM |  | 
O=C(NC1CCS(=O)(=O)CC1)c1nc(C(=O)N2C3CCC2CC3)c(-c2cnc(N[C@@H](C3CC3)C(F)(F)F)cc2C(F)F)s1 [Example 436, 4-((1s,4s)-7-Azabicyclo[2.2.1]heptane-7-carbonyl)-5-[6-[[(1S)-1-cyclopropyl-2,2,2-trifluoro-ethyl]amino]-4-(difluoromethyl)-3-pyridyl]-N-(1,1-dioxothian-4-yl)thiazole-2-carboxamide] |  |  | 1 nM |  | 48 nM | 117% | 
CC[C@H](Nc1cc(C(F)F)c(-c2sc(C(=O)NCC(C)(C)O)nc2C(=O)N2C3CCC2CC3)cn1)C1CC1 (stereo in doubt) [Example 163, 4-((1s,4s)-7-Azabicyclo[2.2.1]heptane-7-carbonyl)-5-(6-(((S*)-1-cyclopropyl)amino)-4-(difluoromethyl)pyridine-3-yl)-N-(2-hydroxy-2-methylpropyl)thiazole-2-carboxamide] |  | 12 nM | 14 nM |  |  |  | 114* %
CCC(C)(C)Nc1cc(C(F)(F)F)c(-c2sc(C(=O)NCC(C)(C)O)nc2C(=O)N2CCC[C@@H]2C)cn1 [Example 109, (S)—N-(2-Hydroxy-2-methylpropyl)-4-(2-methylpyrrolidine-1-carbonyl)-5-(6-(tert-pentylamino)-4-(trifluoromethyl)pyridin-3-yl)thiazole-2-carboxamide] |  | 18 nM | 0.53 nM |  |  |  | 124* %
C[C@H](Nc1cc(C(F)F)c(-c2sc(C(=O)N[C@H]3CC[C@H](O)C3)nc2C(=O)N2C3CCC2CC3)cn1)C(F)(F)F [Example 411, 4-((1s,4s)-7-Azabicyclo[2.2.1]heptane-7-carbonyl)-5-[4-(difluoromethyl)-6-[[(1S)-2,2,2-trifluoro-1-methyl-ethyl]amino]-3-pyridyl]-N-[(1S,3S)-3-hydroxycyclopentyl]thiazole-2-carboxamide] |  |  | 3.6 nM | 100% | 110 nM |  | 
CC[C@H](Nc1cc(C(F)F)c(-c2sc(C(=O)N[C@H]3C[C@H](O)C3)nc2C(=O)N2CC(F)(F)C[C@@H]2C)cn1)C(F)(F)F [Example 449, 4-((S)-4,4-Difluoro-2-methylpyrrolidine-1-carbonyl)-5-(4-(difluoromethyl)-6-(((S)-1,1,1-trifluorobutan-2-yl)amino)pyridin-3-yl)-N-((1R,3S)-3-hydroxycyclobutyl)thiazole-2-carboxamide] |  |  | 2.1 nM | 108% | 21 nM |  | 
C[C@H]1CCCN1C(=O)c1nc(C(=O)N[C@H]2CC[C@H](O)C2)sc1-c1cnc(NC(C)(C)C)cc1C(F)(F)F [Example 361, 5-[6-(tert-Butylamino)-4-(trifluoromethyl)-3-pyridyl]-N-[(1S,3S)-3-hydroxycyclopentyl]-4-[(2S)-2-methylpyrrolidine-1-carbonyl]thiazole-2-carboxamide] |  |  | 0.37 nM | 105% | 25 nM |  | 
C[C@H](Nc1cc(C(F)F)c(-c2sc(C(=O)N[C@H]3C[C@@H]3O)nc2C(=O)N2CCC[C@@H]2C)cn1)C(F)(F)F (relative stereo) [Example 223, 5-(4-(Difluoromethyl)-6-(((S)-1,1,1-trifluoropropan-2-yl)amino)pyridin-3-yl)-N-((1S*,2S*)-2-hydroxycyclopropyl)-4-((S)-2-methylpyrrolidine-1-carbonyl)thiazole-2-carboxamide] |  | 100 nM | 33 nM |  |  |  | 112* %
C[C@H]1CC(F)(F)CN1C(=O)c1nc(C(=O)N[C@H]2C[C@H](O)C2)sc1-c1cnc(N[C@@H](C2CC2)C(F)(F)F)cc1C(F)F [Example 315, 5-(6-(((S)-1-Cyclopropyl-2,2,2-trifluoroethyl)amino)-4-(difluoromethyl)pyridin-3-yl)-4-((S)-4,4-difluoro-2-methylpyrrolidine-1-carbonyl)-N-((1r,3S)-3-hydroxycyclobutyl)thiazole-2-carboxamide] |  |  | 2.9 nM |  | 15 nM | 99% | 
C[C@H]1CCCN1C(=O)c1nc(C(=O)NC(C)(C)C(C)(C)O)sc1-c1cnc(NC(C)(C)C)cc1C(F)(F)F [Example 342, 5-[6-(tert-Butylamino)-4-(trifluoromethyl)-3-pyridyl]-N-(2-hydroxy-1,1,2-trimethyl-propyl)-4-[(2S)-2-methylpyrrolidine-1-carbonyl]thiazole-2-carboxamide] |  |  | 5.7 nM | 103% | 40 nM |  | 
C[C@H](Nc1cc(C(F)F)c(-c2sc(C(=O)N[C@H]3CC[C@H]3O)nc2C(=O)N2CCC[C@@H]2C)cn1)C(F)(F)F (relative stereo) [Example 390, 5-(4-(Difluoromethyl)-6-(((S)-1,1,1-trifluoropropan-2-yl)amino)pyridin-3-yl)-N-((1S*,2R*)-2-hydroxycyclobutyl)-4-((S)-2-methylpyrrolidine-1-carbonyl)thiazole-2-carboxamide] |  |  | 12 nM | 99% | 28 nM |  | 
C[C@H]1CCCN1C(=O)c1nc(C(=O)N2CC[C@@](C)(O)C2)sc1-c1cnc(NC(C)(C)C)cc1C(F)(F)F (relative stereo) [Example 366, (5-(6-(tert-Butylamino)-4-(trifluoromethyl)pyridin-3-yl)-2-((R*)-3-hydroxy-3-methylpyrrolidine-1-carbonyl)thiazol-4-yl)-((S)-2-methylpyrrolidin-1-yl)methanone] |  |  | 10 nM | 97% | 63 nM |  | 
CC[C@H](Nc1cc(C(F)F)c(-c2sc(C(=O)N[C@@H]3C[C@H]3O)nc2C(=O)N2CCC[C@@H]2C)cn1)C(F)(F)F (relative stereo) [Example 213, 5-(4-(Difluoromethyl)-6-(((S)-1,1,1-trifluorobutan-2-yl)amino)pyridin-3-yl)-N-((1R*,2R*)-2-hydroxycyclopropyl)-4-((S)-2-methylpyrrolidine-1-carbonyl)thiazole-2-carboxamide] |  | 19 nM | 6.1 nM |  |  |  | 103* %
CC[C@@H](Nc1cc(C(F)F)c(-c2sc(C(=O)NCC(C)(C)O)nc2C(=O)N2C3CCC2CC3)cn1)C1CC1 (stereo in doubt) [Example 164] |  | 23 nM | 4.6 nM |  |  |  | 105* %
C[C@H]1CCCN1C(=O)c1nc(C(=O)N[C@H](C)C(C)(C)O)sc1-c1cnc(NC(C)(C)C)cc1C(F)F [Example 269, 5-[6-(tert-Butylamino)-4-(difluoromethyl)-3-pyridyl]-N-[(1R)-2-hydroxy-1,2-dimethyl-propyl]-4-[(2S)-2-methylpyrrolidine-1-carbonyl]thiazole-2-carboxamide] |  |  | 4.9 nM | 101% | 8.2 nM |  | 
CC(C)(O)CNC(=O)c1nc(C(=O)N2C3CCC2CC3)c(-c2cnc(NC3CCCC3)cc2C(F)(F)F)s1 [Example 53, 4-((1s,4s)-7-Azabicyclo[2.2.1]heptane-7-carbonyl)-5-(6-(cyclopentylamino)-4-(trifluoromethyl)pyridin-3-yl)-N-(2-hydroxy-2-methylpropyl)thiazole-2-carboxamide] |  | 23 nM | 5.8 nM |  |  |  | 109* %
CC[C@H](Nc1cc(C(F)F)c(-c2sc(C(=O)N[C@H](C)CO)nc2C(=O)N2CC(F)(F)C[C@@H]2C)cn1)C(F)(F)F [Example 423, 4-[(2S)-4,4-Difluoro-2-methyl-pyrrolidine-1-carbonyl]-5-[4-(difluoromethyl)-6-[[(1S)-1-(trifluoromethyl)propyl]amino]-3-pyridyl]-N-[(1R)-2-hydroxy-1-methyl-ethyl]thiazole-2-carboxamide] |  |  | 1.1 nM | 103% | 38 nM |  | 
